Drawing on patent publication US20080176866A1, “NOVEL HETARYL-PHENYLENEDIAMINE-PYRIMIDINES AS PROTEIN KINASE INHIBITORS” (priority 2006, published 2008), this text covers IC50 for 17 compounds.

A word on the IC50: it is the point on the concentration scale where inhibition reaches its midpoint. Low values mean higher potency, high ones lower potency.

The test system of assay [1] is human MCF7 breast tumour cells. The assay can be described thus: MCF7 proliferation assay. In kind it is cell-based. To be noted: 96 h, 4 days incubation, crystal violet staining. Here is the method: Cultivated human MCF7 breast tumour cells (ATCC HTB-22) were plated out in a density of 5000 cells/measurement point in 200 μl of growth medium (RPMI1640, 10% foetal calf serum, 2 mU/mL insulin, 0.1 nM oestradiol) in a 96-well multititre plate. After 24 hours, the cells from a plate (zero plate) were stained with crystal violet (see below), while the medium in the other plates was replaced by fresh culture medium (200 μl) to which the test substances had been added in various concentrations (0 μM, and in the range 0.01-30 μM; the final concentration of the solvent dimethyl sulphoxide was 0.5%). The cells were incubated in the presence of the test substances for 4 days. The cell proliferation was determined by staining the cells with crystal violet: the cells were fixed by adding 20 μl/measurement point of an 11% strength glutaraldehyde solution at room temperature for 15 min. After the fixed cells had been washed three times with water, the plates were dried at room temperature. The cells were stained by adding 100 μl/measurement point of a 0.1% strength crystal violet solution (pH adjusted to pH 3 by adding acetic acid). After the stained cells had been washed three times with water, the plates were dried at room temperature. The dye was dissolved by adding 100 μl/measurement point of a 10% strength acetic acid solution, and the extinction was determined by photometry at a wavelength of 595 nm. The percentage change in cell growth was calculated by normalizing the measurements to the extinctions of the zero point plate (=0%) and the extinction of the untreated (0 μM) cells (=100%). The IC50 values were determined by means of a 4-parameter fit using the company's own software.

The next assay deals with T1, KDR kinase (Homo sapiens, UniProt P35968).
T1 construct: GST; purchased ProQinase GmbH, Freiburg; host or cells: baculovirus-infected insect cells (Sf9)
The assay can be described thus: KDR kinase assay (HTRF). It counts as biochemical. To be noted: KDR kinase-GST, 10 μM ATP. Here is the method: The KDR-inhibitory activity of the substances of this invention was measured in the KDR-HTRF assay (HTRF=Homogeneous Time Resolved Fluorescence) described in the following paragraphs.
Recombinant KDR kinase-GST fusion protein purified from baculovirus-infected insect cells (Sf9) was purchased from ProQinase GmbH, Freiburg. The substrate used for the kinase reaction was the biotinylated peptide biotin-Ahx-DFGLARDMYDKEYYSVG (C terminus in acid form) which can be purchased for example from Biosynthan GmbH (Berlin-Buch, Germany).
KDR kinase was incubated in the presence of various concentrations of test substances in 5 μL of assay buffer [50 mM Hepes/NaOH pH 7.0, 25 mM MgCl2, 5 mM MnCl2, 1.0 mM dithiothreitol, 0.1 mM sodium orthovanadate, 10 μM adenosine triphosphate (ATP), 0.5 μM substrate, 0.001% (v/v) Nonidet-P40 (Sigma), 1% (v/v) dimethyl sulphoxide] at 22° C. for 45 min. The concentration of KDR was adapted to the particular activity of the enzyme and adjusted so that the assay operated in the linear range. The reaction was stopped by adding 5 μl of a solution of HTRF detection reagents (0.1 μM streptavidin-XLent and 2 nM PT66-Eu chelate, a Europium chelate-labelled anti-phospho-tyrosine antibody from Perkin Elmer) in aqueous EDTA solution (125 mM EDTA, 0.2% (w/v) bovine serum albumin (BSA) in 50 mM HEPES/NaOH pH 7.0).
The resulting mixture was incubated at 22° C. for 1 h in order to allow formation of the biotinylated phosphorylated substrate and the streptavidin-XLent and PT66-Eu chelate. The amount of phosphorylated substrate was then estimated by measuring the resonance energy transfer from the PT66-Eu chelate to the streptavidin-XLent. For this purpose, the fluorescence emissions at 620 nm and 665 nm after excitation at 350 nm were measured in an HTRF measuring instrument, e.g. a Rubystar (BMG Labtechnologies, Offenburg, Germany) or a Viewlux (Perkin-Elmer). The ratio of the emissions at 665 nm and at 622 nm was taken as a measure of the amount of phosphorylated substrate. The data were normalized (enzymic reaction without inhibitor=0% inhibition, all other assay components but no enzyme=100% inhibition) and IC50 values were calculated with a 4-parameter fit using an inhouse software.
(Time-resolved FRET reads energy transfer from a long-lived donor to a nearby acceptor.)

T1 sequence (P35968 807-1356 limits assumed): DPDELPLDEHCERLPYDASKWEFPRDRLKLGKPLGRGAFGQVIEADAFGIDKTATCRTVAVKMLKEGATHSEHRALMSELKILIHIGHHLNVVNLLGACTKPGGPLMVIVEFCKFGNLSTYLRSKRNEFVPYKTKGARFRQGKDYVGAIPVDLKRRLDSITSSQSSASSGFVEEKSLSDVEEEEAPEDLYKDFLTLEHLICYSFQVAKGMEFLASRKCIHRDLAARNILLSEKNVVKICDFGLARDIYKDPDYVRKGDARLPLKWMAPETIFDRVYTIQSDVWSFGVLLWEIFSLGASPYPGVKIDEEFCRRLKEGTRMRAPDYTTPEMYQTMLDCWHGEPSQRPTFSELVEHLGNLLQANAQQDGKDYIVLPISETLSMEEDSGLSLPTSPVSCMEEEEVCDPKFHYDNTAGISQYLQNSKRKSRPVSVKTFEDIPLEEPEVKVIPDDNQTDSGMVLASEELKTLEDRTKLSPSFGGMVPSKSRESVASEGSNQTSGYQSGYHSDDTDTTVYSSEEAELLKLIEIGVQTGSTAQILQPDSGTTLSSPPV

As to `CSc1nc(Nc2ccc(Nc3ccccn3)cc2)ncc1Br` [Example 29], the half-maximal inhibitory concentration (IC50) in assay [1] was over 3000 nM; on KDR kinase, over 20000 nM.
For the compound `C[C@@H](O)[C@@H](C)Nc1nc(Nc2ccc(Oc3ncccn3)cc2)ncc1Br` [Example 34], the IC50 against KDR kinase was 100 nM.
For the compound `CC(=O)NCCNc1nc(Nc2cccc(Nc3ncc(Br)c(NCCNC(C)=O)n3)c2)ncc1Br` [Example 30], the half-maximal inhibitory concentration (IC50) in assay [1] amounted to 2000 nM; against KDR kinase it was 21 nM.
As to `C[C@@H](O)[C@@H](C)Oc1nc(Nc2ccc(Nc3nccc(N)n3)cc2)ncc1Br` [Example 16], the IC50 in assay [1] was determined as 420 nM; on KDR kinase, 83 nM.
Regarding `C[C@@H](O)[C@@H](C)Oc1nc(Nc2cccc(Nc3nccc(OCCO)n3)c2)ncc1Br` [Example 27], the IC50 turned out to be 33 nM in assay [1] and 32 nM against KDR kinase.
As for `Cc1cnc(Nc2ccc(Nc3ncc(Br)c(O[C@H](C)[C@@H](C)O)n3)cc2)nc1NCCO` [Example 19], the concentration for half-maximal inhibition (IC50) in assay [1] was 290 nM; against KDR kinase it was 100 nM.
`COc1ccnc(Nc2ccc(Nc3ncc(Br)c(O[C@H](C)[C@@H](C)O)n3)cc2)n1` [Example 22]: the results for the half-maximal inhibitory concentration (IC50) (in assay [1]; at KDR kinase) were 130 nM and 120 nM, respectively.
The compound `C[C@@H](O)[C@@H](C)Nc1nc(Nc2ccc(Sc3nncn3C)cc2)ncc1Br` [Example 39] showed an IC50 against KDR kinase of 41 nM.
`C[C@@H](O)[C@@H](C)Nc1nc(Nc2ccc(Oc3cccnc3)cc2)ncc1Br` [Example 33]: the IC50 in assay [1] was 270 nM; against KDR kinase, 50 nM.
In the case of `C[C@@H](O)[C@@H](C)Oc1nc(Nc2ccc(Nc3nccc(OCCO)n3)cc2)ncc1Br` [Example 8, (2R,3R)-3-(5-Bromo-2-{4-[4-(2-hydroxyethoxy)pyrimidin-2-ylamino]-phenylamino}pyrimidin-4-yloxy)butan-2-ol], the IC50 came to 30 nM in assay [1] and 44 nM against KDR kinase.
As to `C[C@@H](O)[C@@H](C)Oc1nc(Nc2ccc(Nc3nccc(N(C)C)n3)cc2)ncc1Br` [Example 17], the IC50 came to 98 nM in assay [1] and 62 nM against KDR kinase.
For `C[C@@H](O)[C@@H](C)Sc1nc(Nc2ccc(Nc3ncc(Cl)c(NCCO)n3)cc2)ncc1Br` [Example 44], in that order: over 3000 nM and 7300 nM.
For `C[C@@H](O)[C@@H](C)Oc1nc(Nc2cccc(Nc3ncccn3)c2)ncc1Br` [Example 25], the results for the IC50 (in assay [1]; against KDR kinase) were 270 nM and 75 nM, respectively.
As for `C[C@@H](O)[C@@H](C)Oc1nc(Nc2ccc(Nc3ncccn3)cc2)ncc1Br` [Example 15], the IC50 in assay [1] turned out to be 89 nM; at KDR kinase it was 74 nM.
The matching figures for `C[C@@H](O)[C@@H](C)Oc1nc(Nc2ccc(Nc3nccc(NCCN(C)C)n3)cc2)ncc1Br` [Example 18]: 170 nM and 140 nM.
Consider `C[C@@H](O)[C@@H](C)Oc1nc(Nc2ccc(Nc3ncc(Br)cn3)cc2)ncc1Br` [Example 24], for which the IC50 came out at 100 nM in assay [1] and 240 nM against KDR kinase.
For the compound `C[C@@H](O)[C@@H](C)Oc1nc(Nc2ccc(Nc3ncc(Cl)c(NCCO)n3)cc2)ncc1Br` [Example 21], the IC50 in assay [1] amounted to 91 nM; against KDR kinase, 73 nM.
